According to PMC9939733 (The Journal of Biological Chemistry, 2023):
Positions count from the first letter of the chain named.

Tests used:
Format in all cases: biochemical
R140Q IDH2 = biological target: T1, R140Q IDH2 (Homo sapiens, UniProt P48735, R140Q); assay: Absorbance assay, variant activity in the presence of equimolar 2OG (inhibition screen); conditions: 6.0 mM 2OG and 6.0 mM test compound, 0.03 μM R140Q IDH2, 50 μM NADPH
T1 construct: made in house; host or cells: Sf21 insect cells (cell pellets prepared at Evotec)
T1 sequence (P48735 40-452 R140Q): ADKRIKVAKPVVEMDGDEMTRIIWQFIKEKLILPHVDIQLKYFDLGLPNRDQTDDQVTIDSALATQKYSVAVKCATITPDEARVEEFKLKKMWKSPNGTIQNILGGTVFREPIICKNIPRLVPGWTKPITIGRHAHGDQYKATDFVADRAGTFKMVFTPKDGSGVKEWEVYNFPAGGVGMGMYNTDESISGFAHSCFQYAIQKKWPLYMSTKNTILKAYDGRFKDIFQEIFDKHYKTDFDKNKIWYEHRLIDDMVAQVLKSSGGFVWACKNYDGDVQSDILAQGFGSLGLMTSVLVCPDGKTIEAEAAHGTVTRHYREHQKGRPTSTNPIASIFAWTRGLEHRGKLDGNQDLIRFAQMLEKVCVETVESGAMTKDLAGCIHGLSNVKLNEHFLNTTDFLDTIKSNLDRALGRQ
Method: (§1) Compounds were dispensed using a CyBio SDW-CW CyBi-Well Simultaneous Pipettor and assay started using a ThermoFisher Multidrop Combi reagent dispenser.
(§2) Reactions were performed as technical quadruplicates.

R172K IDH2 = biological target: T2, R172K IDH2 (Homo sapiens, UniProt P48735, R172K); assay: as above; conditions: 1.0 mM 2OG and 1.0 mM test compound, 0.03 μM R172K IDH2, 50 μM NADPH
T2 construct: made in house; host or cells: Sf21 insect cells (cell pellets prepared at Evotec)
T2 sequence (P48735 40-452 R172K): T1 sequence (P48735 40-452 R140Q) with Q101R, R133K
Method: as §1, §2

WT IDH1 [1] = biological target: T3, WT IDH1 (Homo sapiens, UniProt O75874); assay: Absorbance assay, WT activity in the presence of equimolar DL-isocitrate (inhibition); conditions: […] isocitrate and […] test compound, 75 μM NADP+, 2.0 nM WT IDH1
T3 construct: made in house; host or cells: Escherichia coli BL21(DE3) pLyS
Method: as §1, §2

WT IDH2 [2] = biological target: T4, WT IDH2 (Homo sapiens, UniProt P48735); assay: as above; conditions: […] isocitrate and […] test compound, 75 μM NADP+, 2.0 nM WT IDH2
T4 construct: made in house; host or cells: Sf21 insect cells (cell pellets prepared at Evotec)
T4 sequence (P48735 40-452): T1 sequence (P48735 40-452 R140Q) with Q101R
Method: as §1, §2

WT IDH1 [3] = biological target: T3, WT IDH1; assay: Absorbance assay, substrate activity in the absence of DL-isocitrate; conditions: no DL-isocitrate; […] test compound, 75 μM NADP+, 2.0 nM WT IDH1; compared to DL-isocitrate
Method: as §1, §2

WT IDH2 [4] = biological target: T4, WT IDH2; assay: as above; conditions: no DL-isocitrate; […] test compound, 75 μM NADP+, 2.0 nM WT IDH2; compared to DL-isocitrate
Method: as §1, §2

R132H IDH1 = R132H IDH1 (Homo sapiens, UniProt O75874, R132H); assay: Absorbance assay, variant activity in the presence of equimolar 2OG (inhibition screen); parameters: made in house; host or cells: Escherichia coli BL21(DE3) pLyS; conditions: […] 2OG and […] test compound, 0.03 μM R132H IDH1, 50 μM NADPH
Method: as §1, §2

T3 sequence (O75874 whole entry): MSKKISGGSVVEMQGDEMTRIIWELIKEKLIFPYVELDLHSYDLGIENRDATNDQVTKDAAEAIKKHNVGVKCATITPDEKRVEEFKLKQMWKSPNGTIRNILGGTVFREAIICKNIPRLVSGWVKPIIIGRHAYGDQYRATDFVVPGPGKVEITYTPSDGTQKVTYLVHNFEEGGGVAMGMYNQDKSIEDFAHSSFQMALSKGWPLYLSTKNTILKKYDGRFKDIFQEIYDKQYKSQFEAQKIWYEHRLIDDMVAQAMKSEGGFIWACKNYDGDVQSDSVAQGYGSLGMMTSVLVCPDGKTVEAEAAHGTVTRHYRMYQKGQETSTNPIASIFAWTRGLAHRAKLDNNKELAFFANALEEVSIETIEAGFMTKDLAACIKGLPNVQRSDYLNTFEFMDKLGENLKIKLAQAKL
Chain of R132H IDH1 (O75874 whole entry R132H): as the sequence (O75874 whole entry) above, with R132H counted along it

O=C(O)C(=O)CC(Cc1ccccc1)C(=O)O (racemic) [compound 19]
activity [%] (%-substrate conversion after 20 min incubation) (R140Q IDH2): 106 ± 4%
activity [%] (%-substrate conversion after 20 min incubation) (R172K IDH2): 102 ± 5%
activity [%] (%-substrate conversion after 20 min incubation) (WT IDH1 [1]): 98±2%
activity [%] (%-substrate conversion after 20 min incubation) (WT IDH2 [2]): 97±3%
activity [%] (%-substrate conversion after 20 min incubation) (WT IDH1 [3]): < 10%
activity [%] (%-substrate conversion after 20 min incubation) (WT IDH2 [4]): < 10%
activity [%] (%-substrate conversion after 20 min incubation) (R132H IDH1): 116 ± 17%

O=C(O)C(=O)C1CC=CCC1C(=O)O (mixture of isomers) [compound 27]
activity [%] (%-substrate conversion after 20 min incubation) (R140Q IDH2): 97 ± 4%
activity [%] (%-substrate conversion after 20 min incubation) (R172K IDH2): 104 ± 8%
activity [%] (%-substrate conversion after 20 min incubation) (WT IDH1 [1]): 93±1%
activity [%] (%-substrate conversion after 20 min incubation) (WT IDH2 [2]): 92±4%
activity [%] (%-substrate conversion after 20 min incubation) (R132H IDH1): 94 ± 11%

CCC(CC(=O)C(=O)O)C(=O)O (racemic) [compound 14]
activity [%] (%-substrate conversion after 20 min incubation) (R140Q IDH2): 117 ± 9%
activity [%] (%-substrate conversion after 20 min incubation) (R172K IDH2): 112 ± 13%
activity [%] (%-substrate conversion after 20 min incubation) (WT IDH1 [1]): 94±1%
activity [%] (%-substrate conversion after 20 min incubation) (WT IDH2 [2]): 98±3%
activity [%] (%-substrate conversion after 20 min incubation) (WT IDH1 [3]): < 10%
activity [%] (%-substrate conversion after 20 min incubation) (WT IDH2 [4]): < 10%
activity [%] (%-substrate conversion after 20 min incubation) (R132H IDH1): 103 ± 2%

CCCC(CC(=O)C(=O)O)C(=O)O (racemic) [compound 15]
activity [%] (%-substrate conversion after 20 min incubation) (R140Q IDH2): 116 ± 4%
activity [%] (%-substrate conversion after 20 min incubation) (R172K IDH2): 97 ± 5%
activity [%] (%-substrate conversion after 20 min incubation) (WT IDH1 [1]): 95±3%
activity [%] (%-substrate conversion after 20 min incubation) (WT IDH2 [2]): 98±3%
activity [%] (%-substrate conversion after 20 min incubation) (WT IDH1 [3]): < 10%
activity [%] (%-substrate conversion after 20 min incubation) (WT IDH2 [4]): < 10%
activity [%] (%-substrate conversion after 20 min incubation) (R132H IDH1): 101 ± 7%

CCCCC(CC(=O)C(=O)O)C(=O)O (racemic) [compound 16]
activity [%] (%-substrate conversion after 20 min incubation) (R140Q IDH2): 131 ± 9%
activity [%] (%-substrate conversion after 20 min incubation) (R172K IDH2): 100 ± 5%
activity [%] (%-substrate conversion after 20 min incubation) (WT IDH1 [1]): 102±3%
activity [%] (%-substrate conversion after 20 min incubation) (WT IDH2 [2]): 100±2%
activity [%] (%-substrate conversion after 20 min incubation) (WT IDH1 [3]): < 10%
activity [%] (%-substrate conversion after 20 min incubation) (WT IDH2 [4]): < 10%
activity [%] (%-substrate conversion after 20 min incubation) (R132H IDH1): 113 ± 4%

O=C(O)C(=O)C1CC1C(=O)O (mixture of isomers) [compound 21]
activity [%] (%-substrate conversion after 20 min incubation) (R140Q IDH2): 394 ± 40%
activity [%] (%-substrate conversion after 20 min incubation) (R172K IDH2): 110 ± 4%
activity [%] (%-substrate conversion after 20 min incubation) (WT IDH1 [1]): 96±1%
activity [%] (%-substrate conversion after 20 min incubation) (WT IDH2 [2]): 95±2%
activity [%] (%-substrate conversion after 20 min incubation) (WT IDH1 [3]): < 10%
activity [%] (%-substrate conversion after 20 min incubation) (WT IDH2 [4]): < 10%
activity [%] (%-substrate conversion after 20 min incubation) (R132H IDH1): 132 ± 3%

O=C(O)CC(CCCc1ccccc1)C(=O)C(=O)O (racemic) [compound 6]
activity [%] (%-substrate conversion after 20 min incubation) (R140Q IDH2): 239 ± 37%
activity [%] (%-substrate conversion after 20 min incubation) (R172K IDH2): 93 ± 1%
activity [%] (%-substrate conversion after 20 min incubation) (WT IDH1 [1]): 96±1%
activity [%] (%-substrate conversion after 20 min incubation) (WT IDH2 [2]): 99±1%
activity [%] (%-substrate conversion after 20 min incubation) (WT IDH1 [3]): < 10%
activity [%] (%-substrate conversion after 20 min incubation) (WT IDH2 [4]): < 10%
activity [%] (%-substrate conversion after 20 min incubation) (R132H IDH1): 182 ± 10%

COc1ccc(CC(CC(=O)O)C(=O)C(=O)O)cc1 (racemic) [compound 9]
activity [%] (%-substrate conversion after 20 min incubation) (R140Q IDH2): 125 ± 3%
activity [%] (%-substrate conversion after 20 min incubation) (R172K IDH2): 111 ± 3%
activity [%] (%-substrate conversion after 20 min incubation) (WT IDH1 [1]): 93±2%
activity [%] (%-substrate conversion after 20 min incubation) (WT IDH2 [2]): 98±3%
activity [%] (%-substrate conversion after 20 min incubation) (WT IDH1 [3]): < 10%
activity [%] (%-substrate conversion after 20 min incubation) (WT IDH2 [4]): < 10%
activity [%] (%-substrate conversion after 20 min incubation) (R132H IDH1): 200 ± 15%

CC(C)(C)CCC(CC(=O)C(=O)O)C(=O)O (racemic) [compound 17]
activity [%] (%-substrate conversion after 20 min incubation) (R140Q IDH2): 119 ± 5%
activity [%] (%-substrate conversion after 20 min incubation) (R172K IDH2): 93 ± 3%
activity [%] (%-substrate conversion after 20 min incubation) (WT IDH1 [1]): 95±7%
activity [%] (%-substrate conversion after 20 min incubation) (WT IDH2 [2]): 100±2%
activity [%] (%-substrate conversion after 20 min incubation) (WT IDH1 [3]): < 10%
activity [%] (%-substrate conversion after 20 min incubation) (WT IDH2 [4]): < 10%
activity [%] (%-substrate conversion after 20 min incubation) (R132H IDH1): 93 ± 3%

O=C(O)C(=O)C1CCC(C(=O)O)CC1 (mixture of isomers) [compound 25]
activity [%] (%-substrate conversion after 20 min incubation) (WT IDH1 [1]): 104±6%
activity [%] (%-substrate conversion after 20 min incubation) (WT IDH2 [2]): 92±9%

O=C(O)C(=O)c1cscc1C(=O)O [compound 31]
activity [%] (%-substrate conversion after 20 min incubation) (R140Q IDH2): 113 ± 4%
activity [%] (%-substrate conversion after 20 min incubation) (R172K IDH2): 99 ± 3%
activity [%] (%-substrate conversion after 20 min incubation) (WT IDH1 [1]): 103±1%
activity [%] (%-substrate conversion after 20 min incubation) (WT IDH2 [2]): 101±2%
activity [%] (%-substrate conversion after 20 min incubation) (R132H IDH1): 102 ± 5%

O=C(O)C(=O)c1ccc(C(=O)O)cc1 [compound 30]
activity [%] (%-substrate conversion after 20 min incubation) (R140Q IDH2): 94 ± 3%
activity [%] (%-substrate conversion after 20 min incubation) (R172K IDH2): 110 ± 8%
activity [%] (%-substrate conversion after 20 min incubation) (WT IDH1 [1]): 101±2%
activity [%] (%-substrate conversion after 20 min incubation) (WT IDH2 [2]): 100±4%
activity [%] (%-substrate conversion after 20 min incubation) (R132H IDH1): 103 ± 2%

CC(C)(C)CCC(CC(=O)O)C(=O)C(=O)O (racemic) [compound 5]
activity [%] (%-substrate conversion after 20 min incubation) (R140Q IDH2): 146 ± 4%
activity [%] (%-substrate conversion after 20 min incubation) (R172K IDH2): 98 ± 3%
activity [%] (%-substrate conversion after 20 min incubation) (WT IDH1 [1]): 95±6%
activity [%] (%-substrate conversion after 20 min incubation) (WT IDH2 [2]): 98±1%
activity [%] (%-substrate conversion after 20 min incubation) (WT IDH1 [3]): < 10%
activity [%] (%-substrate conversion after 20 min incubation) (WT IDH2 [4]): < 10%
activity [%] (%-substrate conversion after 20 min incubation) (R132H IDH1): 142 ± 14%

O=C(O)CC(Cc1ccc(F)cc1)C(=O)C(=O)O (racemic) [compound 8]
activity [%] (%-substrate conversion after 20 min incubation) (R140Q IDH2): 516 ± 40%
activity [%] (%-substrate conversion after 20 min incubation) (R172K IDH2): 106 ± 5%
activity [%] (%-substrate conversion after 20 min incubation) (WT IDH1 [1]): 96±3%
activity [%] (%-substrate conversion after 20 min incubation) (WT IDH2 [2]): 100±1%
activity [%] (%-substrate conversion after 20 min incubation) (WT IDH1 [3]): < 10%
activity [%] (%-substrate conversion after 20 min incubation) (WT IDH2 [4]): < 10%
activity [%] (%-substrate conversion after 20 min incubation) (R132H IDH1): 186 ± 6%

CC1(C)C(C(=O)O)C1C(=O)C(=O)O (mixture of isomers) [compound 22]
activity [%] (%-substrate conversion after 20 min incubation) (R140Q IDH2): 112 ± 4%
activity [%] (%-substrate conversion after 20 min incubation) (R172K IDH2): 110 ± 10%
activity [%] (%-substrate conversion after 20 min incubation) (WT IDH1 [1]): 96±1%
activity [%] (%-substrate conversion after 20 min incubation) (WT IDH2 [2]): 96±1%
activity [%] (%-substrate conversion after 20 min incubation) (R132H IDH1): 92 ± 5%

O=C(O)C(=O)C1C2C=CC(C2)C1C(=O)O (racemic) [compound 28]
activity [%] (%-substrate conversion after 20 min incubation) (R140Q IDH2): 114 ± 4%
activity [%] (%-substrate conversion after 20 min incubation) (WT IDH2 [2]): 99±1%
activity [%] (%-substrate conversion after 20 min incubation) (R132H IDH1): 116 ± 4%

O=C(O)C(=O)c1cccc(C(=O)O)c1 [compound 29]
activity [%] (%-substrate conversion after 20 min incubation) (R140Q IDH2): 95 ± 7%
activity [%] (%-substrate conversion after 20 min incubation) (R172K IDH2): 93 ± 7%
activity [%] (%-substrate conversion after 20 min incubation) (WT IDH1 [1]): 94±2%
activity [%] (%-substrate conversion after 20 min incubation) (WT IDH2 [2]): 99±1%
activity [%] (%-substrate conversion after 20 min incubation) (R132H IDH1): 88 ± 2%
